# Read-outs that look alike come from different tables or passages of the source.
# Legend:
# Format in all cases: cell-based
# hGCGR = molecular target: T1, hGCGR (Homo sapiens, UniProt P47871); assay: Functional cAMP formation (HTRF) in HEK-293 clonal cells expressing hGCGR, 0.1% bovine casein, without or with 1.0% human serum albumin
# T1 construct: expressed in transfected cells
# Summary of the method: (§1)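 Readings of the HTRF 665/620 nm ratio, which falls as cAMP rises, were converted to nM cAMP using a standard curve after 30 min peptide exposure at 37° C.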
# hGLP-1R = hGLP-1R (Homo sapiens, UniProt P43220); assay: Functional cAMP formation (HTRF) in HEK-293 clonal cells expressing hGLP-1R, 0.1% bovine casein, without or with 1.0% human serum albumin; parameters: expressed in transfected cells; conditions: for EC50: geometric mean; for Emax: read-out: hGLP-1R Emax, % ± SEM
# Summary of the method: as §1
# hGIPR = molecular target: T2, hGIPR (Homo sapiens, UniProt P48546); assay: Functional cAMP formation (HTRF) in HEK-293 clonal cells expressing hGIPR, 0.1% bovine casein, without or with 1.0% human serum albumin; conditions: for Emax: read-out: hGIPR Emax, % ± SEM; for EC50: geometric mean
# T2 construct: expressed in transfected cells
# T2 sequence (P48546 22-466): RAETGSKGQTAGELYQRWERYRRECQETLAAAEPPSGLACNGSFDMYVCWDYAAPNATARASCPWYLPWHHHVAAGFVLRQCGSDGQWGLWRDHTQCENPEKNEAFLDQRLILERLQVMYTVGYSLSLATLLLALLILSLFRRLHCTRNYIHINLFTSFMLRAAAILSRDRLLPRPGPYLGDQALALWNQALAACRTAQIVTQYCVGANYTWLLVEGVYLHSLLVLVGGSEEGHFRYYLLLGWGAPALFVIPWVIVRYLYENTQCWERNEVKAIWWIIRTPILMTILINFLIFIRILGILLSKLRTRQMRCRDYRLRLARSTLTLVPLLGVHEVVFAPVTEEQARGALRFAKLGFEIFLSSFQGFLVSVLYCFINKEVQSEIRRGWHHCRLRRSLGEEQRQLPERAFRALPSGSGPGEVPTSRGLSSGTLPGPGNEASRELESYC
# Summary of the method: as §1
# [1] = 0.1% bovine casein and 1.0% human serum albumin, 37° C., geometric mean, read-out: hGCGR EC50, nM (SEM, n)
# [2] = cAMP, incubated at 37° C., 0.1% bovine casein (no human serum albumin), geometric mean, read-out: hGCGR EC50, nM (SEM, n)
# [3] = HEK293, 0.1% bovine casein and 1.0% human serum albumin, 37° C., percent of maximal response to GLP-1(7-36)NH2
# [4] = HEK293, percent of maximal response to GIP(1-42)NH2, 37° C., 0.1% bovine casein, arithmetic mean
# T1 sequence (P47871 26-477): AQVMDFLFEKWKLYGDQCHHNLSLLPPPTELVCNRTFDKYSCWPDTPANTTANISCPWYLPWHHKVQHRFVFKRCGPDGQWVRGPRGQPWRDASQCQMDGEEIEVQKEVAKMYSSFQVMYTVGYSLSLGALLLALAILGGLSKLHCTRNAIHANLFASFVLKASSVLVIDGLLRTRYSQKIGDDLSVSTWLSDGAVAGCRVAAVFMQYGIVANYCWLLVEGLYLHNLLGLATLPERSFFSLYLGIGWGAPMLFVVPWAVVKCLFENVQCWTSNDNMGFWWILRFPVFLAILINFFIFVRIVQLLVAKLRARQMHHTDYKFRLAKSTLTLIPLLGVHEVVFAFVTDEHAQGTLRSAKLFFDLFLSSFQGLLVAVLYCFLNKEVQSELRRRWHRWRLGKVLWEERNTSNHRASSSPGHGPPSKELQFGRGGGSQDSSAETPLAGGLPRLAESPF
# Chain of hGLP-1R (P43220 24-463): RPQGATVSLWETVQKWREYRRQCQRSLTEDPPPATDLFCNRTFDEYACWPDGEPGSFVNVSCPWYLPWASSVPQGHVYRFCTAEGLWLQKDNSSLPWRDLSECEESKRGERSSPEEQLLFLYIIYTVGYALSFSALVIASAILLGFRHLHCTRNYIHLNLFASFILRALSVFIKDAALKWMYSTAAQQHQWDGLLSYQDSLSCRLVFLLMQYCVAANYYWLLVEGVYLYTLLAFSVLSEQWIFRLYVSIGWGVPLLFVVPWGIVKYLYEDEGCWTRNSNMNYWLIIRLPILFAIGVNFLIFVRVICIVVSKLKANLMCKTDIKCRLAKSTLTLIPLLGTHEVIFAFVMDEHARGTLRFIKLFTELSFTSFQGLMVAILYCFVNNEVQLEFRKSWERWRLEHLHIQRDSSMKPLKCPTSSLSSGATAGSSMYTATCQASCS
smiles,measurement,setting,value
CCCCCCCCCCCC(=O)N[C@@H](CCC(=O)NCCOCCOCC(=O)NCCCC[C@H](NC(=O)[C@H](CCCN)NC(=O)[C@H](CC(=O)O)NC(=O)[C@H](CC(C)C)NC(=O)[C@](C)(CC(C)C)NC(=O)[C@@H](NC(=O)C(C)(C)NC(=O)[C@H](CCCCNC(=O)COCCOCCNC(=O)CC[C@H](NC(=O)CCCCCCCCCCC)C(=O)O)NC(=O)[C@H](CC(=O)O)NC(=O)[C@H](CO)NC(=O)[C@@H](NC(=O)[C@](C)(Cc1ccccc1F)NC(=O)[C@@H](NC(=O)CNC(=O)[C@H](CCC(=O)O)NC(=O)C(C)(C)NC(=O)[C@@H](N)Cc1ccc(O)cc1)[C@@H](C)O)[C@@H](C)O)[C@@H](C)CC)C(=O)N[C@@H](C)C(=O)N[C@@H](CCC(N)=O)C(=O)NC(C)(C)C(=O)N[C@@H](CCC(=O)O)C(=O)N[C@@H](Cc1ccccc1)C(=O)N[C@H](C(=O)N[C@H](CCC(=O)O)C(=O)N[C@@](C)(Cc1ccc(O)cc1)C(=O)N[C@@H](CC(C)C)C(=O)N[C@H](C(=O)N[C@@H](CCC(=O)O)C(=O)NCC(=O)NCC(=O)N1CCC[C@H]1C(=O)N[C@@H](CO)C(=O)N[C@@H](CO)C(=O)NCC(=O)N[C@@H](C)C(=O)N1CCC[C@H]1C(=O)N1CCC[C@H]1C(=O)N1CCC[C@H]1C(=O)N[C@@H](CO)C(N)=O)[C@@H](C)CC)[C@@H](C)CC)C(=O)O [Example 425],EC50,"hGCGR; cAMP, 37° C., 0.1% bovine casein (no human serum albumin), geometric mean, read-out: hGCGR EC50, nM (SEM, n)",> 9950 nM
same,EC50,"hGCGR; cAMP, 37° C., 0.1% bovine casein and 1.0% human serum albumin, geometric mean (SEM, n), read-out: hGCGR EC50, nM (SEM, n)",> 9950 nM
same,EC50,"hGLP-1R; cAMP, 37° C., 0.1% bovine casein (no human serum albumin), read-out: hGLP-1R EC50, nM (SEM, n)",0.0965 nM
same,Emax,"hGIPR; HEK293, cAMP, 37° C., 0.1% bovine casein and 1.0% human serum albumin, percent of maximal response to GIP(1-42)NH2",89.9%
same,Emax,"hGIPR; HEK293, cAMP, 37° C., 0.1% bovine casein, percent of maximal response to GIP(1-42)NH2, arithmetic mean",97.6%
same,EC50,"hGIPR; cAMP, 37° C., 0.1% bovine casein (no human serum albumin), read-out: hGIPR EC50, nM (SEM, n)",0.00943 nM
CC[C@H](C)[C@H](NC(=O)[C@H](CC(C)C)NC(=O)[C@](C)(Cc1ccc(O)cc1)NC(=O)[C@@H](CCC(=O)O)NC(=O)[C@@H](NC(=O)[C@H](Cc1ccccc1)NC(=O)[C@H](CCC(=O)O)NC(=O)C(C)(C)NC(=O)[C@H](CCC(N)=O)NC(=O)[C@H](C)NC(=O)[C@H](CCCCNC(=O)COCCOCCNC(=O)COCCOCCNC(=O)CC[C@H](NC(=O)CCCCCCCCCCCCC(=O)O)C(=O)O)NC(=O)[C@H](CCCN)NC(=O)[C@H](CC(=O)O)NC(=O)[C@H](CC(C)C)NC(=O)[C@](C)(CC(C)C)NC(=O)[C@@H](NC(=O)[C@H](CN)NC(=O)[C@H](Cc1ccncc1)NC(=O)[C@H](CC(=O)O)NC(=O)[C@H](CO)NC(=O)[C@@H](NC(=O)[C@](C)(Cc1ccccc1F)NC(=O)[C@@H](NC(=O)CNC(=O)[C@H](CCC(=O)O)NC(=O)C(C)(C)NC(=O)[C@@H](N)Cc1ccc(O)cc1)[C@@H](C)O)[C@@H](C)O)[C@@H](C)CC)[C@@H](C)CC)C(=O)N[C@@H](CCC(=O)O)C(=O)NCC(=O)NCC(=O)N[C@@H](CCCCNC(=O)COCCOCCNC(=O)COCCOCCNC(=O)CC[C@H](NC(=O)CCCCCCCCCCCCC(=O)O)C(=O)O)C(=O)N[C@@H](CO)C(=O)N[C@@H](CO)C(=O)NCC(=O)N[C@@H](C)C(=O)N1CCC[C@H]1C(=O)N1CCC[C@H]1C(=O)N1CCC[C@H]1C(=O)N[C@@H](CO)C(N)=O [Example 199],EC50,hGCGR; [1],> 9950 nM
same,EC50,hGCGR; [2],> 9950 nM
same,Emax,hGLP-1R; [3],100%
same,Emax,"hGLP-1R; HEK293, percent of maximal response to GLP-1(7-36)NH2, 37° C., 0.1% bovine casein, arithmetic mean",96.7 ± 6.69%
same,Emax,"hGIPR; HEK293, 0.1% bovine casein and 1.0% human serum albumin, 37° C., percent of maximal response to GIP(1-42)NH2",77.1%
same,Emax,hGIPR; [4],96.9 ± 1.48%
same,EC50,"hGIPR; cAMP, incubated at 37° C., 0.1% bovine casein (no human serum albumin), read-out: hGIPR EC50, nM (SEM, n)",0.0587 nM
CCCCCCCCCCCC(=O)N[C@@H](CCC(=O)NCCOCCOCC(=O)NCCOCCOCC(=O)NCCCC[C@H](NC(=O)[C@H](CCCN)NC(=O)[C@H](CC(=O)O)NC(=O)[C@H](CC(C)C)NC(=O)[C@](C)(CC(C)C)NC(=O)[C@@H](NC(=O)[C@H](CO)NC(=O)[C@H](Cc1ccncc1)NC(=O)[C@H](CC(=O)O)NC(=O)[C@H](CO)NC(=O)[C@@H](NC(=O)[C@](C)(Cc1ccccc1F)NC(=O)[C@@H](NC(=O)CNC(=O)[C@H](CCC(=O)O)NC(=O)C(C)(C)NC(=O)[C@@H](N)Cc1ccc(O)cc1)[C@@H](C)O)[C@@H](C)O)[C@@H](C)CC)C(=O)N[C@@H](C)C(=O)N[C@@H](CCC(N)=O)C(=O)NC(C)(C)C(=O)N[C@@H](CCC(=O)O)C(=O)N[C@@H](Cc1ccccc1)C(=O)N[C@H](C(=O)N[C@@H](CCCCNC(=O)COCCOCCNC(=O)COCCOCCNC(=O)CC[C@H](NC(=O)CCCCCCCCCCC)C(=O)O)C(=O)N[C@@](C)(Cc1ccc(O)cc1)C(=O)N[C@@H](CC(C)C)C(=O)N[C@H](C(=O)N[C@@H](CCC(=O)O)C(=O)NCC(=O)NCC(=O)N1CCC[C@H]1C(=O)N[C@@H](CO)C(=O)N[C@@H](CO)C(=O)NCC(=O)N[C@@H](C)C(=O)N1CCC[C@H]1C(=O)N1CCC[C@H]1C(=O)N1CCC[C@H]1C(=O)N[C@@H](CO)C(N)=O)[C@@H](C)CC)[C@@H](C)CC)C(=O)O [Example 138],EC50,"hGCGR; hGCGR EC50, nM (SEM, n), cAMP, incubated at 37° C., 0.1% bovine casein (no human serum albumin), geometric mean",> 9950 nM
same,EC50,"hGLP-1R; hGLP-1R EC50, nM (SEM, n), cAMP, incubated at 37° C., 0.1% bovine casein (no human serum albumin)",0.267 nM
same,EC50,"hGIPR; hGIPR EC50, nM (SEM, n), cAMP, incubated at 37° C., 0.1% bovine casein (no human serum albumin)",0.0197 nM
CC[C@H](C)[C@H](NC(=O)[C@H](CCCN)NC(=O)[C@H](CC(=O)O)NC(=O)[C@H](CC(C)C)NC(=O)[C@](C)(CC(C)C)NC(=O)[C@@H](NC(=O)[C@H](CO)NC(=O)[C@H](Cc1ccncc1)NC(=O)[C@H](CC(=O)O)NC(=O)[C@H](CO)NC(=O)[C@@H](NC(=O)[C@](C)(Cc1ccccc1F)NC(=O)[C@@H](NC(=O)CNC(=O)[C@H](CCC(=O)O)NC(=O)C(C)(C)NC(=O)[C@@H](N)Cc1ccc(O)cc1)[C@@H](C)O)[C@@H](C)O)[C@@H](C)CC)C(=O)N[C@@H](C)C(=O)N[C@@H](CCC(N)=O)C(=O)NC(C)(C)C(=O)N[C@@H](CCC(=O)O)C(=O)N[C@@H](Cc1ccccc1)C(=O)N[C@H](C(=O)N[C@@H](CCCCNC(=O)COCCOCCNC(=O)COCCOCCNC(=O)CC[C@H](NC(=O)CCCCCCCCCCCCC(=O)O)C(=O)O)C(=O)N[C@@](C)(Cc1ccc(O)cc1)C(=O)N[C@@H](CC(C)C)C(=O)N[C@H](C(=O)N[C@@H](CCC(=O)O)C(=O)NCC(=O)NCC(=O)N[C@@H](CCCCNC(=O)COCCOCCNC(=O)COCCOCCNC(=O)CC[C@H](NC(=O)CCCCCCCCCCCCC(=O)O)C(=O)O)C(=O)N[C@@H](CO)C(=O)N[C@@H](CO)C(=O)NCC(=O)N[C@@H](C)C(=O)N1CCC[C@H]1C(=O)N1CCC[C@H]1C(=O)N1CCC[C@H]1C(=O)N[C@@H](CO)C(N)=O)[C@@H](C)CC)[C@@H](C)CC [Example 71],EC50,hGCGR; [1],> 9950 nM
same,EC50,hGCGR; [2],> 9950 nM
same,EC50,"hGLP-1R; 0.1% bovine casein and 1.0% human serum albumin, 37° C., read-out: hGLP-1R EC50, nM (SEM, n)",43.7 nM
same,Emax,hGLP-1R; [3],100%
same,EC50,"hGLP-1R; cAMP, incubated at 37° C., 0.1% bovine casein (no human serum albumin), read-out: hGLP-1R EC50, nM (SEM, n)",0.246 nM
same,EC50,"hGIPR; 0.1% bovine casein and 1.0% human serum albumin, 37° C., read-out: hGIPR EC50, nM (SEM, n)",3.07 nM
same,Emax,hGIPR; [4],93.8 ± 3.59%

# Reference: patent US20230265151A1, “GIP/GLP1 CO-AGONIST COMPOUNDS” (priority 2020, published 2023)
